Measured values: article PMC11769294, “(E)-1-(3-(3-Hydroxy-4-Methoxyphenyl)-1-(3,4,5-Trimethoxyphenyl)allyl)-1H-1,2,4-Triazole and Related Compounds: Their Synthesis and Biological Evaluation as Novel Antimitotic Agents Targeting Breast Cancer” (Pharmaceuticals, 2025)
Like-named read-outs stand apart in the source and are kept apart here.

How the values were obtained:
[1] = system: MCF-7 breast cancer cells; details: cited from earlier work
HL-60 cells = details: reported values; cited from earlier work
[2] = system: MCF-7 breast cancer cells; test: alamarBlue cell viability assay; format: cell-based; details: Homo sapiens
Method: Figure 5 Preliminary cell viability data for Series 1: (A) compounds 22a–22g and chalcone 20b and Series 2: (B) compounds 23a–e and chalcone 20b in MCF-7 breast cancer cells. Cell proliferation of MCF-7 cells was determined with an alamarBlue assay (seeding density 2.5 × 10^4 cells/mL per well for 96-well plates). Compound concentrations of either 1 or 0.1 μM for 72 h were used to treat the cells (in triplicate) with control wells containing vehicle ethanol (1% v/v). The mean value ± SEM for three independent experiments is shown. The positive controls used are CA-4 and phenstatin (1.0 μM and 0.1 μM). Statistical analysis was performed using One-way ANOVA with the Sidak multiple comparison test (***, p < 0.001).
HL-60 cells were suspension cells and the seeding density for the viability assay was 25,000 cells/mL. MCF-7 cells (adherent) were cultured in Minimum Essential Media (MEM) with GlutaMAX™-I, supplemented with 1% (v/v) non-essential amino acids, 10% (v/v) fetal bovine serum (FBS), purchased from BD Biosciences (Edmund Halley Road, Oxford, UK), and 1% (v/v) penicillin/streptomycin 5000 U/mL. The MCF-7 cells used in the screening of the compounds during these experiments were mycoplasma-free. The seeding density of MCF-7 in the viability assay was 25,000 cells/mL and 50,000 cells/mL in the FACS assay. Normal breast cells (MCF-10A) (adherent) were cultured in Dulbecco’s Modified Eagle Medium: Nutrient Mixture F-12 (DMEM/F12; Gibco) supplemented with 5% horse serum (Invitrogen, Waltham, MA, USA), 20 ng/mL epidermal growth factor (Merck Millipore, Burlington, MA, USA), 0.5 μg/mL hydrocortisone (Sigma, Kanagawa, Japan), 100 ng/mL cholera toxin (Sigma), 10 μg/mL insulin (Sigma), and penicillin/streptomycin 5000 U/mL (1%) (Gibco, Waltham, MA, USA). […] MDA-MB-231 cells were cultured in Dulbecco’s Modified Eagle Medium, which was supplemented with 10% (v/v) fetal bovine serum (FBS) and 1% (v/v) penicillin/streptomycin 5000 U/mL. When not in use, all cells were kept in liquid nitrogen and frozen in a freezing media made of 90% FBS and 10% DMSO. All cells were grown in an atmosphere of 5% CO2/95% air in T75 culture flasks. The media was changed every 2–3 days and media was always prewarmed to 37 °C. All were sub-cultured every 3–4 days by trypsinization using TrypLE™ Express enzyme when confluence was reached to allow growth, prevent excessive cell death, and minimize the risk of infections derived by over-confluence. For the cell viability assay, the number of cells per milliliter was 25,000 cells/mL while the FACS assay utilized 50,000 cells/mL. Cells were maintained at 37 °C in 5% CO2 in a humidified incubator.
The biochemical assays were performed in triplicate and on at least three independent occasions to facilitate the determination of mean values. For the viability assay, cells were grown until 80% confluent. Adherent cells such as MCF-7, MDA-MB-231, and MCF-10A were trypsinized to detach them from the flask, counted as previously described, and seeded in 96 well plates with a seeding density of 25,000 cells /mL (200 µL of suspension in each well so that the final number of cells per well was 5000) and 1 × 10^4 cells/well seeding density for suspension HL-60 cells. Adherent cells were incubated for 24 h after being seeded in the 96 well plate and treated on the following day, while suspension cells were treated on the same day of the seeding. In both cases, the incubation time after the treatment with the drug was 72 h. After 68 h incubation, the AlamarBlue was added (20 µL in each well) and the incubation time was completed. After 72 h, the change in color was measured by spectrofluorimetry at an excitation wavelength of 544 nm and emission wavelength of 590 nm. AlamarBlue is a cell viability indicator containing a compound called resazurin. AlamarBlue is water soluble, stable in culture media, non-toxic, and is permeable through the cell membrane. […]

[3] = system: MDA-MB-231 breast cancer cells; details: reported values; cited from earlier work
[4] = system: K562 human chronic myelogenous leukemia cell line; set-up: method as in PMID 19837593; details: cited from earlier work
[5] = system: tubulin in MCF-7 breast cancer cells; test: Immunofluorescence confocal microscopy of microtubules; format: cell-based, human; details: 16 h, 22b 10 μM, paclitaxel and phenstatin 1 μM
Method: Briefly, the MCF-7 cells were seeded at a density of 1 × 10^5 cells/mL on eight chamber glass slides (BD Biosciences). […] The cells were then washed in PBS, fixed for 20 min with 4% paraformaldehyde in PBS, and permeabilized in 0.5% Triton X-100. […] Images of the cells were obtained using Leica SP8 confocal microscopy (Wetzlar, Germany) with Leica application suite X software (Wetzlar, Germany). Experiments were performed on three independent occasions.
The micrograph images were obtained with Leica SP8 confocal microscopy utilizing Leica application suite X software. Representative confocal images of three separate experiments are shown. The scale bar indicates 25 μm.

[6] = system: purified bovine brain tubulin; set-up: method as in PMID 33671674; details: 10 μM; cited from earlier work
[7] = system: MDA-MB-231 breast cancer cells; set-up: method as in PMID 33671674; details: cited from earlier work
MCF-7 cells = system: MCF-7 cells; set-up: method as in PMID 33671674; details: 1 μM, cited from earlier work
[8] = system: MCF-7 breast cancer cells; set-up: method as in PMID 33671674; details: cited from earlier work
[9] = MCF7, MCF-7, 1 μM, 72 h, read-out: viable cells

COc1ccc(/C=C\c2cc(OC)c(OC)c(OC)c2)cc1O [CA-4, combretastatin CA-4]
IC50 [1]: 4 nM | IC50 ([1]; reported values): 3.9 ± 0.32 nM | IC50 (HL-60 cells): 1.9 ± 0.5 nM | viability at 1 µM [2, 9]: 24% | IC50 [3]: 43 nM

COc1ccc(/C=C(\C)C(=O)c2cc(OC)c(OC)c(OC)c2)cc1O [Compound 16a]
IC50 [4]: 0.21 nM

COc1ccc(/C=C/C(=O)c2cc(OC)c(OC)c(OC)c2)cc1O [Compound 20b, (E)-3-(3-hydroxy-4-methoxyphenyl)-1-(3,4,5-trimethoxyphenyl)prop-2-en-1-one, reference compound]
IC50 ([2]; MCF7, MCF-7, 72 h): 67 ± 17 nM

COc1cc(/C=C/C(c2cc(OC)c(OC)c(OC)c2)n2cncn2)cc(OC)c1OC (stereo not shown) [Compound 22c, (E)-1-(1,3-Bis(3,4,5-trimethoxyphenyl)allyl)-1H-1,2,4-triazole]
viability at 1 µM [2, 9]: 70%

COc1ccc(/C=C/C(c2cc(OC)c(OC)c(OC)c2)n2cncn2)cc1OC (stereo not shown) [Compound 22d, (E)-1-(3-(3,4-Dimethoxyphenyl)-1-(3,4,5-trimethoxyphenyl)allyl)-1H-1,2,4-triazole]
viability at 1 µM [2, 9]: 74%

COc1ccc(C2CC(=O)c3cc(OC)c(OC)c(OC)c32)cc1O (stereo not shown) [Compound 24a, 3-(3-Hydroxy-4-methoxyphenyl)-4,5,6-trimethoxy-2,3-dihydro-1H-inden-1-one, reference compound]
viability at 0.1 µM ([2]; MCF7, MCF-7, 0.1 μM, 72 h, read-out: viable cells): 70% | viability at 1 µM [2, 9]: 35%

C(=C\C(c1ccncc1)n1ccnc1)/c1c2ccccc2cc2ccccc12 (stereo not shown) [Compound 33b, (E)-4-(3-(Anthracen-9-yl)-1-(1H-imidazol-1-yl)allyl)pyridine]
viability at 1 µM [2, 9]: 92%

CC(=O)O[C@H]1C(=O)[C@@]2(C)[C@H]([C@H](OC(=O)c3ccccc3)[C@]3(O)C[C@H](OC(=O)[C@H](O)[C@@H](NC(=O)c4ccccc4)c4ccccc4)C(C)=C1C3(C)C)[C@]1(OC(C)=O)CO[C@@H]1C[C@@H]2O [paclitaxel]
effect on microtubule network [5]: hyperpolymerization of tubulin

COc1ccc(C(=O)c2cc(OC)c(OC)c(OC)c2)cc1O [phenstatin]
IC50 [1]: 34 nM | viability at 1 µM ([2]; MCF7, 72 h, read-out: viable cells): 30% | reduction in the polymer mass vs vehicle [6]: 10 fold | total apoptosis ([7]; 0.1 μM): 16.6% | total apoptosis ([7]; 0.5 μM): 17.9% | effect on microtubule network [5]: depolymerization of tubulin | cells in G2/M phase (MCF-7 cells; 24 h): 65% | cells in G2/M phase (MCF-7 cells; 48 h): 57% | cells in G2/M phase (MCF-7 cells; 72 h): 51% | cells in apoptosis (sub-G1) (MCF-7 cells; 72 h): 18% | total apoptosis ([8]; 0.1 μM): 36.1% | total apoptosis ([8]; 0.5 μM): 46%
